For one data set, the target named is T1, human FXa (Homo sapiens, UniProt P00742).
T1 construct: purchased Enzyme Research Labolatories, Inc
The experiment in a line: Determination of human FXa-inhibiting effect (IC50 value), chromogenic substrate S-2222. The data set is classed as biochemical. Particulars: substrate S-2222, absorbance at 405 nm, room temperature. The text has this:
Determination of Human FXa-Inhibiting Effect (IC50 Value):
As a control, Tris buffer was used in place of the test compound.

Structures can show the parent of a compound that is named as a salt.

T1 sequence (P00742 235-488 limits assumed): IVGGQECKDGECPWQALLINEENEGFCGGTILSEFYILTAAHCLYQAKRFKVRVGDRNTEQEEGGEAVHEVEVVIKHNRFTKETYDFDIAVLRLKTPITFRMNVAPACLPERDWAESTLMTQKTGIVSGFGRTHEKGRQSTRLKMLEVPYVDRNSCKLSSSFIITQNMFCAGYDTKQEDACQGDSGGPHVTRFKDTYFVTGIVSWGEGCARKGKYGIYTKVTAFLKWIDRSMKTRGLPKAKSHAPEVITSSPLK
T1 sequence (P00742 41-179 partner limits assumed): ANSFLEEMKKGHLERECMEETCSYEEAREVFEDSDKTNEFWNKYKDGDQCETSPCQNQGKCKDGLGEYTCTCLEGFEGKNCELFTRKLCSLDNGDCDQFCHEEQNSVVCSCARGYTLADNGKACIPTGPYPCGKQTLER

For the compound `Cc1nnc([C@H]2CC[C@H](NC(=O)C(=O)Nc3ccc(Cl)cn3)[C@H](NC(=O)c3nc4c(s3)CN(C)CC4)C2)o1` [Ex. 384, N^1-(5-chloropyridin-2-yl)-N^2-[(1S,2R,4S)-2-{[(5-methyl-4,5,6,7-tetrahydrothiazolo[5,4-c]pyridin-2-yl)carbonyl]amino}-4-(5-methyl-1,3,4-oxadiazol-2-yl)cyclohexyl]ethanediamide hydrochloride], at human FXa, the 50% inhibitory concentration (IC50) came to 1 nM.

With `Cc1nnc([C@H]2CC[C@H](NC(=O)C(=O)Nc3ccc(Br)cn3)[C@H](NC(=O)c3nc4c(s3)CN(C)CC4)C2)o1` [Ex. 396, N^1-(5-bromo-2-pyridinyl)-N^2-((1S,2R,4S)-4-(5-methyl-1,3,4-oxadiazol-2-yl)-2-{[(5-methyl-4,5,6,7-tetrahydrothiazolo[5,4-c]pyridin-2-yl)carbonyl]amino}cyclohexyl)ethanediamide hydrochloride], it took 1.1 nM to reach half-maximal inhibition at human FXa (IC50).

`CN1CCc2nc(C(=O)N[C@@H]3C[C@@H](c4nnco4)CC[C@@H]3NC(=O)C(=O)Nc3ccc(Cl)cn3)sc2C1` [Ex. 385, N^1-(5-chloropyridin-2-yl)-N^2-[(1S,2R,4S)-2-{[(5-methyl-4,5,6,7-tetrahydrothiazolo[5,4-c]pyridin-2-yl)carbonyl]amino}-4-(1,3,4-oxadiazol-2-yl)cyclohexyl]ethanediamide] yielded a 50% inhibitory concentration (IC50) at human FXa of 1.3 nM.

`C#Cc1ccc(NC(=O)C(=O)N[C@H]2CC[C@H](c3nnc(C)o3)C[C@H]2NC(=O)c2nc3c(s2)CN(C)CC3)nc1` [Ex. 402, N^1-(5-ethynylpyridin-2-yl)-N^2-((1S,2R,4S)-4-(5-methyl-1,3,4-oxadiazol-2-yl)-2-{[(5-methyl-4,5,6,7-tetrahydrothiazolo[5,4-c]pyridin-2-yl)carbonyl]amino}cyclohexyl)ethanediamide] returned a half-maximal inhibitory concentration (IC50) at human FXa of 1.1 nM.

Regarding `Cc1nnc([C@H]2CC[C@H](NC(=O)C(=O)Nc3ccc(Cl)s3)[C@H](NC(=O)c3nc4c(s3)CN(C)CC4)C2)o1` [Ex. 395, N^1-(5-chloro-2-thienyl)-N^2-((1S,2R,4S)-4-(5-methyl-1,3,4-oxadiazol-2-yl)-2-{[(5-methyl-4,5,6,7-tetrahydrothiazolo[5,4-c]pyridin-2-yl)carbonyl]amino}cyclohexyl)ethanediamide citric acid salt], it took 0.72 nM to reach half-maximal inhibition on human FXa (IC50).

Regarding `CN1CCc2nc(C(=O)N[C@@H]3CCS(=O)(=O)C[C@H]3NC(=O)c3cc4cc(F)ccc4[nH]3)sc2C1` (relative stereo) (as salt: hydrochloride) [Example 183, N-((3R*,4R*)-3-{[(5-Fluoroindol-2-yl)carbonyl]amino}-1,1-dioxohexahydro-1-thiopyran-4-yl)-5-methyl-4,5,6,7-tetrahydrothiazolo[5,4-c]pyridine-2-carboxamide hydrochloride], the melting point lay within 244 to 249 °C.

In the case of `CN1CCc2nc(C(=O)N[C@@H]3C[C@@H](n4cccc4)CC[C@@H]3NC(=O)C(=O)Nc3ccc(Cl)cn3)sc2C1` [Ex. 413, N^1-(5-chloropyridin-2-yl)-N^2-[(1S,2R,4S)-2-{[(5-methyl-4,5,6,7-tetrahydrothiazolo[5,4-c]pyridin-2-yl)carbonyl]amino}-4-(1H-pyrrol-1-yl)cyclohexyl]ethanediamide hydrochloride], on human FXa, the IC50 came to 1 nM.

Take `CN1CCc2nc(C(=O)N[C@@H]3C[C@@H](C(=O)N(C)C)CC[C@@H]3NC(=S)C(=O)Nc3ccc(F)cn3)sc2C1` (hydrate or solvate): the melting point is 176 to 179 °C (dec.).

Turning to `CN1CCc2nc(C(=O)N[C@@H]3C[C@@H](n4cnnc4)CC[C@@H]3NC(=O)C(=O)Nc3ccc(Cl)cn3)sc2C1` [Ex. 394, N^1-(5-chloropyridin-2-yl)-N^2-(1S,2R,4S)-2-{[(5-methyl-4,5,6,7-tetrahydrothiazolo[5,4-c]pyridin-2-yl)carbonyl]amino}-4-(4H-1,2,4-triazol-4-yl)cyclohexyl)ethanediamide hydrochloride], the concentration for half-maximal inhibition (IC50) on human FXa came out at 1.1 nM.

For orientation: IC50 means the midpoint of a concentration-inhibition curve. One may read the melting point as the temperature of the solid-liquid transition.

(Values after US7576135B2, “Diamine derivatives” (Daiichi Pharmaceutical Co., Ltd., priority 2002, dated 2009).)
